Results published in patent US20260042755A1, “GPR6 INVERSE AGONISTS” (MapLight Therapeutics, Inc., priority 2022, published 2026).

Tests used:
[1] = target: T1, GPR6 (Homo sapiens, UniProt P46095); test: GPR6 antagonist functional cAMP assay (LANCE Ultra cAMP TR-FRET, CHO cells stably expressing GPR6); assay type: cell-based
T1 construct: expressed in transfected cells; host or cells: CHO cells
Method in brief: (§1)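 Compounds, at 0.1% final DMSO, acted on the cells for 45 minutes at 37 °C in the presence of the phosphodiesterase inhibitor Ro 20-1724 (150 μM). After lysis and detection, plates were shaken 1 h at room temperature and emission at 665 nm was recorded. Normalized data gave IC50 values.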

[2] = target: T2, GPR3 (Homo sapiens, UniProt P46089); test: GPR3 antagonist functional cAMP assay (LANCE Ultra cAMP TR-FRET, CHO cells stably expressing GPR3); assay type: cell-based
T2 construct: expressed in transfected cells; host or cells: CHO cells
T2 sequence (P46089 whole entry, species assumed): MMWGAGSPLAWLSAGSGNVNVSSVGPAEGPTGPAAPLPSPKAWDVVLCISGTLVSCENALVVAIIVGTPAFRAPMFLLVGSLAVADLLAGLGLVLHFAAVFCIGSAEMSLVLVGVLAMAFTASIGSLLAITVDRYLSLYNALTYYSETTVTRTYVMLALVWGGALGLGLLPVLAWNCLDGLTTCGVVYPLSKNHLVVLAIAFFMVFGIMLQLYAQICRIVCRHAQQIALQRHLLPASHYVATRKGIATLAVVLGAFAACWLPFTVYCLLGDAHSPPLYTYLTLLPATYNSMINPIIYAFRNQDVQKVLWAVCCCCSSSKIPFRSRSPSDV
Method in brief: as §1

[3] = CHO cells stably expressing GPR6, cAMP assay (Example 24)
[4] = CHO cells stably expressing GPR3, cAMP assay (Example 24)
[5] = CHO cells stably expressing GPR6, cAMP assay
[6] = CHO cells stably expressing GPR3, cAMP assay

T1 sequence (P46095 whole entry): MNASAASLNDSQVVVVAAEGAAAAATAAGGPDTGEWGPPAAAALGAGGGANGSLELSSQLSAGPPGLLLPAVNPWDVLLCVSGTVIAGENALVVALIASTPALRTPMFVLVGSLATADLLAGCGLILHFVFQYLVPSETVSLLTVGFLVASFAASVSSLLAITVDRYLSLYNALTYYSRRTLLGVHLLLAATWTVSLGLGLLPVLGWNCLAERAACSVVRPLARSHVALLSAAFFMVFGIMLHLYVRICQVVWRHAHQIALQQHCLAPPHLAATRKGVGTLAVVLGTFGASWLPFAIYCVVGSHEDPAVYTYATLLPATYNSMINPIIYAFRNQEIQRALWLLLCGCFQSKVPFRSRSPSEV

SMILES | IC50 ([1]; procedure of Example 24) | IC50 ([2]; procedure of Example 24) | IC50 [1, 3] | IC50 [2, 4] | other results
CC(=O)N1CCc2nc(N3CCN(Cc4ccc(OC(F)(F)F)cc4)CC3)c(-c3cnn(C)c3)nc2C1 [Compound 359, 1-[3-(1-methyl-1H-pyrazol-4-yl)-2-(4-{[4-(trifluoromethoxy)phenyl]methyl}piperazin-1-yl)-5H,6H,7H,8H-pyrido [3,4-b]pyrazin-6-yl]ethan-1-one] | 1000 to 30000 nM | 1000 to 30000 nM | – | – | –
CC(=O)N1CCc2nc(N3CCN(Cc4c(F)cccc4F)CC3)c(-c3cnn(C)c3)nc2C1 [Compound 346, 1-(2-{4-[(2,6-difluorophenyl)methyl]piperazin-1-yl}-3-(1-methyl-1H-pyrazol-4-yl)-5H,6H,7H,8H-pyrido[3,4-b]pyrazin-6-yl)ethan-1-one] | 1000 to 30000 nM | 100 to 1000 nM | – | – | –
CC(C)(O)[C@@](C)(O)c1cc2nc(N3CCN(Cc4ccccc4F)CC3)c(-c3cnn(CF)c3)nc2cn1 (single isomer, unassigned) [Compound 676] | 100 to 1000 nM | 1000 to 30000 nM | – | – | –
CC(=O)N1CCc2nc(N3CCC(Oc4ccc(F)cc4F)CC3)c(-c3ccccn3)nc2C1 [Compound 79, 1-{2-[4-(2,4-difluorophenoxy)piperidin-1-yl]-3-(pyridin-2-yl)-5H,6H,7H,8H-pyrido[3,4-b]pyrazin-6-yl}ethan-1-one] | – | – | 1000 to 30000 nM | 1000 to 30000 nM | –
CC(C)(O)C(C)(O)c1cc2nc(-c3cnn(C(F)F)c3)c(N3CCN(Cc4ccc(F)cc4F)CC3)nc2cn1 (single isomer, unassigned) [Compound 662] | < 100 nM | 1000 to 30000 nM | – | – | –
COc1cncc(-c2nc3cnc(C)cc3nc2N2CCC(Oc3ccc(F)cc3F)CC2)n1 [Compound 230, 2-{2-[4-(2,4-difluorophenoxy)piperidin-1-yl]-7-methylpyrido[3,4-b]pyrazin-3-yl}-6-methoxypyrazine] | – | – | 1000 to 30000 nM | 1000 to 30000 nM | –
CC(C)(O)C(O)c1cc2nc(N3CCC(Oc4ccc(F)cc4F)CC3)c(-c3cnn(C(F)F)c3)nc2cn1 (stereo not drawn) [Compound 407, 1-{3-[1-(difluoromethyl)-4-pyrazolyl]-2-[4-(2,4-difluorophenoxy)-1-piperidyl]-1,4,6-triaza-7-naphthyl}-2-methyl-1,2-propanediol] | – | – | 100 to 1000 nM | 1000 to 30000 nM | –
Cn1cc(-c2nc3cnccc3nc2N2CCN(CC3CCCCO3)CC2)cn1 (stereo not drawn) [Compound 246, 1-[3-(1-methyl-1H-pyrazol-4-yl)pyrido[3,4-b]pyrazin-2-yl]-4-[(oxan-2-yl)methyl]piperazine] | – | – | ≥ 30000 nM | ≥ 30000 nM | –
O=C(N1CCOCC1)N1CCc2nc(N3CCC(Oc4ccc(F)cc4F)CC3)c(-c3cn[nH]c3)nc2C1 [Compound 120, 4-{2-[4-(2,4-difluorophenoxy)piperidin-1-yl]-3-(1H-pyrazol-4-yl)-5H,6H,7H,8H-pyrido[3,4-b]pyrazine-6-carbonyl}morpholine] | – | – | 100 to 1000 nM | 1000 to 30000 nM | –
O=C(CN1CCOCC1)N1CCc2nc(N3CCC(Oc4ccc(F)cc4F)CC3)c(-c3cnn(C4CCCCO4)c3)nc2C1 (stereo not drawn) [Compound 202, 1-{2-[4-(2,4-difluorophenoxy)piperidin-1-yl]-3-[1-(oxan-2-yl)-1H-pyrazol-4-yl]-5H,6H,7H,8H-pyrido[3,4-b]pyrazin-6-yl}-2-(morpholin-4-yl)ethan-1-one] | – | – | 1000 to 30000 nM | 1000 to 30000 nM | –
CC(C)OC(=O)N1CCc2nc(N3CCC(Oc4ccc(F)cc4F)CC3)c(-c3cn[nH]c3)nc2C1 [Compound 121, propan-2-yl 2-[4-(2,4-difluorophenoxy)piperidin-1-yl]-3-(1H-pyrazol-4-yl)-c5H,6H,7H,8H-pyrido[3,4-b]pyrazine-6-carboxylate] | – | – | 100 to 1000 nM | 1000 to 30000 nM | –
Cn1cc(-c2nc3c(nc2N2CCC(Oc4ccc(F)cc4F)CC2)CCN(S(C)(=O)=O)C3)cn1 [Compound 211, 4-(2,4-difluorophenoxy)-1-[6-methanesulfonyl-3-(1-methyl-1H-pyrazol-4-yl)-5H,6H,7H,8H-pyrido[3,4-b]pyrazin-2-yl]piperidine] | – | – | < 100 nM | 1000 to 30000 nM | –
COc1ccc(OC2CCN(c3nc4c(nc3-c3cnn(C)c3)CN(C(C)=O)CC4)CC2)c(F)c1 [Compound 452, 1-{2-[4-(2-fluoro-4-methoxyphenoxy)piperidin-1-yl]-3-(1-methyl-1H-pyrazol-4-yl)-5H,6H,7H,8H-pyrido[3,4-b]pyrazin-6-yl}ethan-1-one] | – | – | 100 to 1000 nM | 1000 to 30000 nM | –
Cn1cc(-c2nc3cnc([C@@H](O)C(C)(C)O)cc3nc2N2CCC(Oc3ccc(F)cc3F)CC2)cn1 (single isomer, unassigned) [Compound 379, (Rel-R)-1-(2-(4-(2,4-difluorophenoxy)piperidin-1-yl)-3-(1-methyl-1H-pyrazol-4-yl)pyrido[3,4-b]pyrazin-7-yl)-2-methylpropane-1,2-diol] | – | – | 100 to 1000 nM | 1000 to 30000 nM | –
COc1ccc(C(=O)N2CCN(c3nc4c(nc3-c3cnn(C)c3)CN(C(C)=O)CC4)CC2)nc1 [Compound 284, 1-{2-[4-(5-methoxypyridine-2-carbonyl)piperazin-1-yl]-3-(1-methyl-1H-pyrazol-4-yl)-5H,6H,7H,8H-pyrido[3,4-b]pyrazin-6-yl}ethan-1-one] | 1000 to 30000 nM | 1000 to 30000 nM | – | – | –
OCCN1CCc2nc(N3CCC(Oc4ccc(F)cc4F)CC3)c(-c3cn[nH]c3)nc2C1 [Compound 141, 2-{2-[4-(2,4-difluorophenoxy)piperidin-1-yl]-3-(1H-pyrazol-4-yl)-5H,6H,7H,8H-pyrido[3,4-b]pyrazin-6-yl}ethan-1-ol] | – | – | 1000 to 30000 nM | 1000 to 30000 nM | –
Cn1cc(-c2nc3cnccc3nc2N2CC[C@H](Oc3ccc(F)cc3F)[C@H](F)C2)cn1 (single isomer, unassigned) [Compound 332] | 1000 to 30000 nM | 1000 to 30000 nM | – | – | –
Fc1ccc(-c2ncc3n2CCN(c2nc4ccncc4nc2-c2cn[nH]c2)C3)c(F)c1 [Compound 130, 4-{2-[3-(2,4-difluorophenyl)-5H,6H,7H,8H-imidazo[1,5-a]pyrazin-7-yl]pyrido[3,4-b]pyrazin-3-yl}-1H-pyrazole] | – | – | ≥ 30000 nM | ≥ 30000 nM | –
CCS(=O)(=O)N1CCc2nc(N3CCC(Oc4ccc(F)cc4F)CC3)c(-c3cn[nH]c3)nc2C1 [Compound 123, 4-(2,4-difluorophenoxy)-1-[6-(ethanesulfonyl)-3-(1H-pyrazol-4-yl)-5H,6H,7H,8H-pyrido[3,4-b]pyrazin-2-yl]piperidine] | – | – | 100 to 1000 nM | 1000 to 30000 nM | –
O=C(C1COC1)N1CCc2nc(N3CCC(Oc4ccc(F)cc4F)CC3)c(-c3cn[nH]c3)nc2C1 [Compound 184, 4-(2,4-difluorophenoxy)-1-[6-(oxetane-3-carbonyl)-3-(1H-pyrazol-4-yl)-5H,6H,7H,8H-pyrido[3,4-b]pyrazin-2-yl]piperidine] | – | – | < 100 nM | 1000 to 30000 nM | –
CC(C)(O)[C@](C)(O)c1cc2nc(N3CCN(Cc4ccccc4F)CC3)c(-c3cnn(CF)c3)nc2cn1 (single isomer, unassigned) [Compound 675] | 100 to 1000 nM | 1000 to 30000 nM | – | – | –
CC(=O)N1CCc2nc(N3CC[C@H](Oc4ccc(F)cc4F)[C@H](F)C3)c(-c3cnn(C)c3)nc2C1 (single isomer, unassigned) [Compound 334] | 1000 to 30000 nM | 1000 to 30000 nM | – | – | –
CC(=O)N1CCc2nc(N3CCC(Oc4ccc(F)cc4F)CC3)c(-c3c[nH]c(C)n3)nc2C1 [Compound 116, 1-{2-[4-(2,4-difluorophenoxy)piperidin-1-yl]-3-(2-methyl-1H-imidazol-4-yl)-5H,6H,7H,8H-pyrido[3,4-b]pyrazin-6-yl}ethan-1-one] | – | – | 100 to 1000 nM | 1000 to 30000 nM | –
CCn1cc(-c2nc3c(nc2N2CCC(Oc4ccc(F)cc4F)CC2)CCN(C(=O)C2CCCN2)C3)cn1 (stereo not drawn) [Compound 291, 4-(2,4-difluorophenoxy)-1-[3-(1-ethyl-1H-pyrazol-4-yl)-6-(pyrrolidine-2-carbonyl)-5H,6H,7H,8H-pyrido[3,4-b]pyrazin-2-yl]piperidine] | < 100 nM | 1000 to 30000 nM | – | – | –
CC(=O)N1CCc2nc(N3CCN(C(c4ccccc4)C(F)(F)F)CC3)c(-c3cnn(C)c3)nc2C1 (stereo not drawn) [Compound 730, 1-{3-(1-methyl-4-pyrazolyl)-2-[4-(2,2,2-trifluoro-1-phenylethyl)-1-piperazinyl]-5,6,7,8-tetrahydro-1,4,6-triaza-6-naphthyl}-1-ethanone] | 1000 to 30000 nM | 1000 to 30000 nM | – | – | –
CC(=O)N1CCc2nc(N3CCC(Oc4ccccc4F)C3)c(-c3cnn(C)c3)nc2C1 (stereo not drawn) [Compound 340, 1-{2-[3-(2-fluorophenoxy)pyrrolidin-1-yl]-3-(1-methyl-1H-pyrazol-4-yl)-5H,6H,7H,8H-pyrido[3,4-b]pyrazin-6-yl}ethan-1-one] | 1000 to 30000 nM | ≥ 30000 nM | – | – | –
CCn1cc(-c2nc3cnc([C@H](O)C(C)(C)O)cc3nc2N2CCC(Oc3ccc(F)cc3F)CC2)cn1 (single isomer, unassigned) [Compound 571] | – | – | – | – | IC50 [1, 5]: < 100 nM; IC50 [2, 6]: 1000 to 30000 nM
COCn1ccnc1-c1nc2c(nc1N1CCC(Oc3ccc(F)cc3F)CC1)CCN(C(C)=O)C2 [Compound 67, 1-{2-[4-(2,4-difluorophenoxy)piperidin-1-yl]-3-[1-(methoxymethyl)-1H-imidazol-2-yl]-5H,6H,7H,8H-pyrido[3,4-b]pyrazin-6-yl}ethan-1-one] | – | – | 1000 to 30000 nM | 1000 to 30000 nM | –
CC(C)S(=O)(=O)N1CCc2nc(N3CCC(Oc4ccc(F)cc4F)CC3)c(-c3ccc(F)c(N)n3)nc2C1 [Compound 627, 6-{2-[4-(2,4-difluorophenoxy)-1-piperidyl]-6-(isopropylsulfonyl)-5,6,7,8-tetrahydro-1,4,6-triaza-3-naphthyl}-3-fluoro-2-pyridylamine] | 100 to 1000 nM | 1000 to 30000 nM | – | – | –
CC(C)(O)C(O)c1cc2nc(-c3cnn(C(F)F)c3)c(N3CCN(Cc4ccc(F)cc4F)CC3)nc2cn1 (single isomer, unassigned) [Compound 585] | – | – | – | – | IC50 [1, 5]: < 100 nM; IC50 [2, 6]: 100 to 1000 nM
